# Results: publication PMC10918664, “New Triazole-Based Potent Inhibitors of Human Factor XIIa as Anticoagulants” (ACS Omega, 2024)
# Like-named read-outs stand apart in the source and are kept apart here.
# Assays:
# [1] = target: T1, thrombin (factor IIa) (Homo sapiens, UniProt P00734); design: method as in PMID 36321236; conditions: previously reported inhibitor, in figure; read-out: FIIa IC50; cited from earlier work
# T1 construct: The prothrombinase complex converts prothrombin (FII) to thrombin (FIIa); purchased Haematologic Technologies (Essex Junction, VT); host or cells: human plasma
# [2] = test system: human plasma; design: method as in PMID 36321236; conditions: previously reported inhibitor, in figure; read-out: APTT (EC×1.5); cited from earlier work
# [3] = target: T2, human FXIIa (Homo sapiens, UniProt P00748); experiment: Direct inhibition of human FXIIa, chromogenic substrate hydrolysis assay; conditions: for HS (Hill slope) / ΔY (%) efficacy of inhibition: pH 7.4, 37 °C; for significant inhibitory activity against FXIIa in the screening: at 200 μM; for subclass of inhibitor based on selectivity studies: versus thrombin, FIXa, FXa, FXIa
# T2 sequence (P00748 373-615 limits assumed): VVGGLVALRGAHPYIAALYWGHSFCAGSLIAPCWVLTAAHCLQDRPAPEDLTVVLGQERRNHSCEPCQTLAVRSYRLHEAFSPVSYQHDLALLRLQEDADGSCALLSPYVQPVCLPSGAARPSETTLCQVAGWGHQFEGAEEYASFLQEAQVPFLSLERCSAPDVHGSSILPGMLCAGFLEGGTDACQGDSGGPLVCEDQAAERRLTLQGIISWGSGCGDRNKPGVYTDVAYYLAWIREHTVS
# T2 sequence (P00748 20-372 partner limits assumed): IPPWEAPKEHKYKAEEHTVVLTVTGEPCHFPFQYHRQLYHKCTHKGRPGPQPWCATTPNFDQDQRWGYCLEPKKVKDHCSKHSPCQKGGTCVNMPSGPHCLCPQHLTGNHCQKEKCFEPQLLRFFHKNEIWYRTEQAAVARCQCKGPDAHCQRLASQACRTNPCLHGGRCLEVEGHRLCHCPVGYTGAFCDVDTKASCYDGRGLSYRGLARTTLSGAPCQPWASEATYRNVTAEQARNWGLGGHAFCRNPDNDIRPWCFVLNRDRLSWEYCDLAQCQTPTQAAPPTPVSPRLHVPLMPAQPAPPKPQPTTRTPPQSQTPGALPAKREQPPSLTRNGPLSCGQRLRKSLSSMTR
# Protocol: The slope of the resulting line corresponds to the residual enzyme activity, and the change in residual enzyme activity, relative to the concentration of the inhibitor, is plotted and fitted using the logistic eq 1. […] In this setup, each well of the 96-well microplate contained 175 μL of pH 7.4 TrisHCl buffer, to which 5 μL of potential inhibitors (or vehicle) and 5 μL of human FXIIa (stock concentration: 200 nM) were added sequentially. […] The relative residual FXIIa activity at each inhibitor concentration was computed by comparing the FXIIa activity in the absence and presence of the inhibitor. To obtain the potency (IC50) and efficacy (ΔY) of inhibition, the dose dependence of residual FXIIa activity was fitted to the logistic eq 1.
# [4] = target: T3, FXIa (Homo sapiens, UniProt P03951); experiment: Inhibition of FXIa, chromogenic substrate hydrolysis assay; format: biochemical; conditions: for IC50: pH 7.4, 37 °C; for selectivity index (IC50 enzyme/IC50 FXIIa): FXIa over FXIIa
# T3 construct: purchased Haematologic Technologies (Essex Junction, VT); host or cells: human plasma
# Protocol: (§1) The selectivity was evaluated against thrombin and factors IXa, Xa, and XIa.
# (§2) These assays were performed by using substrates and conditions appropriate for the enzyme being studied. To conduct selectivity analysis, various concentrations of the inhibitors were utilized, and the residual enzyme activity was assessed at each concentration. […] This allowed for the determination of the corresponding IC50 and efficacy of the enzyme–inhibitor complex. The KM of the chromogenic substrate with its enzyme was employed to ascertain the concentration of the chromogenic substrate used in the inhibition studies.
# [5] = target: T4, FIXa (Homo sapiens, UniProt P00740); experiment: Inhibition of FIXa, chromogenic substrate hydrolysis assay; format: biochemical; conditions: for IC50: FIXa, pH 7.4, 37 °C
# T4 construct: purchased Haematologic Technologies (Essex Junction, VT); host or cells: human plasma
# Protocol: as §1, §2
# [6] = target: T5, FXa (Homo sapiens, UniProt P00742); experiment: Inhibition of FXa, chromogenic substrate hydrolysis assay; format: biochemical
# T5 construct: purchased Haematologic Technologies (Essex Junction, VT); host or cells: human plasma
# Protocol: as §1, §2
# [7] = target: T1, thrombin (factor IIa); experiment: Inhibition of thrombin, chromogenic substrate hydrolysis assay; format: biochemical; conditions: for HS (Hill slope) / ΔY (%) / IC50: thrombin; for selectivity index (IC50 enzyme/IC50 FXIIa): thrombin over FXIIa; for IC50: pH 7.4, 37 °C
# Protocol: as §1, §2
# [8] = test system: human plasma; experiment: Activated partial thromboplastin time (APTT) clotting assay; format: biochemical
# Protocol: The APTT assay is employed to assess the impact of a new potential anticoagulant on clotting driven by the contact/intrinsic pathway, involving FIXa, FXIa, and FXIIa. Conversely, the PT assay is utilized to gauge the impact of the new potential anticoagulant on the extrinsic pathway of coagulation, which includes FVIIa. […] In the PT assay, thromboplastin-D was created by adding 4 mL of distilled water, and the resulting mixture was warmed to 37 °C. […] Upon the addition of 200 μL of prewarmed thromboplastin-D reagent, the clotting time was recorded. In the APTT assay, 90 μL of citrated human plasma was combined with 10 μL of the molecule of interest (or the vehicle) and 100 μL of prewarmed 0.2% ellagic acid. Following a 4 min incubation at 37 °C, clotting was initiated by introducing 100 μL of prewarmed 0.025 M CaCl2, and the clotting time was recorded. In both assays, approximately nine or more concentrations of molecules were employed to generate concentration vs effect profiles. The data were then plotted against a quadratic trendline, enabling the estimation of the concentration required to double the clotting time. Clotting times were similarly measured using 10 μL of highly purified water (negative control). The positive controls used in APTT and PT assays were (1) UFH, antithrombin activator; (2) argatroban, a clinically used thrombin inhibitor; (3) rivaroxaban, a clinically used FXa inhibitor; and (4) C6B7, a monoclonal antibody FXIIa inhibitor.
# [9] = test system: human plasma; experiment: Prothrombin time (PT) clotting assay; format: biochemical; conditions: highest concentration of 2500 μM
# Protocol: The APTT assay is employed to assess the impact of a new potential anticoagulant on clotting driven by the contact/intrinsic pathway, involving FIXa, FXIa, and FXIIa. Conversely, the PT assay is utilized to gauge the impact of the new potential anticoagulant on the extrinsic pathway of coagulation, which includes FVIIa. […] In the PT assay, thromboplastin-D was created by adding 4 mL of distilled water, and the resulting mixture was warmed to 37 °C. […] Upon the addition of 200 μL of prewarmed thromboplastin-D reagent, the clotting time was recorded. In the APTT assay, 90 μL of citrated human plasma was combined with 10 μL of the molecule of interest (or the vehicle) and 100 μL of prewarmed 0.2% ellagic acid. Following a 4 min incubation at 37 °C, clotting was initiated by introducing 100 μL of prewarmed 0.025 M CaCl2, and the clotting time was recorded. In both assays, approximately nine or more concentrations of molecules were employed to generate concentration vs effect profiles. The data were then plotted against a quadratic trendline, enabling the estimation of the concentration required to double the clotting time. Clotting times were similarly measured using 10 μL of highly purified water (negative control). […]
# [10] = human FXIIa, Tris–HCl buffer pH 7.4, 37 °C
# T3 sequence (P03951 388-625 limits assumed): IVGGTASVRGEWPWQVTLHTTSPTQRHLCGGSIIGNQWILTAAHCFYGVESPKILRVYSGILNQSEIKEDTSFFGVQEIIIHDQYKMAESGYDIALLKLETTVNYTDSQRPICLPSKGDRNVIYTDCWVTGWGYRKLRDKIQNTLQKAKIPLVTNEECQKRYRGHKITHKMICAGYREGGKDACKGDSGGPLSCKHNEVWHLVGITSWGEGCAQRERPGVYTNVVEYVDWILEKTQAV
# T3 sequence (P03951 19-387 partner limits assumed): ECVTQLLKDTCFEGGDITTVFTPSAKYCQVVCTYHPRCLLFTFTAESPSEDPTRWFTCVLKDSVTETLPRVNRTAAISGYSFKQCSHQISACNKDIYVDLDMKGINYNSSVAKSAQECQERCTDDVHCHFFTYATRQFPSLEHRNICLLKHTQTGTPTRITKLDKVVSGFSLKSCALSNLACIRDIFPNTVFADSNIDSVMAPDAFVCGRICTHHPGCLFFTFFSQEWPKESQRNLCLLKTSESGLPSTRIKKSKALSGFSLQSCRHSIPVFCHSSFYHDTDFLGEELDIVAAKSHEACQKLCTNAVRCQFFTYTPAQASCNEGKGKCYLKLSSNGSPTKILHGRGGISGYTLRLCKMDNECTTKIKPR
# T4 sequence (P00740 227-461 limits assumed): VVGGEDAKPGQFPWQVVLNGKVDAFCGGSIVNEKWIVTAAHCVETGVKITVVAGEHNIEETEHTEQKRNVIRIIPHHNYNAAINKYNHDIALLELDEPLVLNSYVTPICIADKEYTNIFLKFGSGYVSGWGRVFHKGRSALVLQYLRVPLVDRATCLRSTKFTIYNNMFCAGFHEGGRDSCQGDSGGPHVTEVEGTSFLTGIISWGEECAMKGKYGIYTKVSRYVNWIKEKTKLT
# T4 sequence (P00740 47-191 partner limits assumed): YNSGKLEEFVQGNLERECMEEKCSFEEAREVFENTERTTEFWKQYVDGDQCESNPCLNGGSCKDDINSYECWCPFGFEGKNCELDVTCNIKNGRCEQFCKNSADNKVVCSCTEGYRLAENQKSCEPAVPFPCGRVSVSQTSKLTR
# T5 sequence (P00742 235-488 limits assumed): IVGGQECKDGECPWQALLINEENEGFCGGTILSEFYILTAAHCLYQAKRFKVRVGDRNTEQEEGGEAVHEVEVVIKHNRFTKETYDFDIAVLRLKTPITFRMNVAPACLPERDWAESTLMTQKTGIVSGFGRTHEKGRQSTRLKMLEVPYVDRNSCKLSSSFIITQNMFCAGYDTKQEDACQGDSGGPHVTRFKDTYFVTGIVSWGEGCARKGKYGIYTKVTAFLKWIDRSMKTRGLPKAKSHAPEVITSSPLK
# T5 sequence (P00742 41-179 partner limits assumed): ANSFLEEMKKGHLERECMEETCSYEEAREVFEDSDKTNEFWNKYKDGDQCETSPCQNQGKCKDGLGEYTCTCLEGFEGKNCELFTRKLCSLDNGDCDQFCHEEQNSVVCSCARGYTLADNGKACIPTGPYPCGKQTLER
Structure (SMILES),HS (Hill slope) ([3]; human FXIIa),ΔY (%) efficacy of inhibition ([3]; human FXIIa),IC50 ([4]; FXIa),IC50 [3],HS (Hill slope) [7],ΔY (%) [7],IC50 [7],other results
COC(=O)c1nc(N)n(C(=O)c2cc(OC)c(OC)c(OC)c2)n1 [compound 8],1.1 ± 0.1,100 ± 2%,14900 ± 1400 nM,45 ± 3 nM,0.9 ± 0.2,102.0 ± 4.5%,19 ± 4 nM,"HS (Hill slope) ([4]; FXIa): 0.9 ± 0.1; ΔY (%) ([4]; FXIa): 100.3 ± 3.1%; selectivity index (IC50 enzyme/IC50 FXIIa) [4]: 331.11; HS (Hill slope) ([6]; FXa): 1.2 ± 0.2; ΔY (%) ([6]; FXa): 100.8 ± 2.7%; selectivity index (IC50 enzyme/IC50 FXIIa) ([6]; FXa over FXIIa): 1057.78; IC50 ([6]; FXa, pH 7.4, 37 °C): 47600 ± 5800 nM; selectivity index (IC50 enzyme/IC50 FXIIa) [7]: 0.42; selectivity index (IC50 enzyme/IC50 FXIIa) ([5]; FIXa over FXIIa): >4000; IC50 [5]: > 180000 nM; fold increased potency regarding the effect on APTT ([8]; relative to RA): ~6 fold"
CC(C)(C)c1ccc(C(=O)n2ncnc2N)cc1 [compound 10],1.4 ± 0.7,82 ± 8%,,,,,,"IC50 ([3]; FXIIa, summary picture in supplement): 8500 nM; IC50 [3, 10]: 8500 ± 1200 nM; fold less potent FXIIa inhibitor ([3]; than inhibitor RA): 77.3 fold"
Cc1ccc(S(=O)(=O)n2cnc([N+](=O)[O-])n2)cc1 [compound 12],,,,,,,,significant inhibitory activity against FXIIa in the screening [3]: none
O=C(O)c1nc(NS(=O)(=O)c2ccccc2[N+](=O)[O-])n[nH]1 [compound 13],,,,,,,,effect on PT [9]: did not affect; significant inhibitory activity against FXIIa in the screening [3]: none; effect on APTT ([8]; highest concentration of 2500 μM): did not affect
O=C(O)c1ncn(-c2ccccc2)n1 [compound 14],,,,,,,,significant inhibitory activity against FXIIa in the screening [3]: none
O=C(O)Cc1nc(-c2ccccc2)n[nH]1 [compound 15],,,,,,,,significant inhibitory activity against FXIIa in the screening [3]: none
Cc1cccc(C(=O)n2cnnc2N)c1 [compound 24],,,> 50000 nM,,,,,inhibition at 50 µM ([7]; read-out: inhibition of thrombin at 50 μM): 43%
Cc1cc(C)cc(C(=O)n2cnnc2N)c1 [compound 26],,,,,,,> 50000 nM,
COc1cc(OC)cc(C(=O)n2cnnc2N)c1 [compound 30],,,,,1.0 ± 0.3,53 ± 16%,250 ± 140 nM,
COC(=O)c1nc(N)n(C(C)=O)n1 [compound 32],0.9 ± 0.2,67 ± 8%,,6300 nM,,,,

# More lines, main results first:
HS (Hill slope) ([3]; human FXIIa),ΔY (%) efficacy of inhibition ([3]; human FXIIa),IC50 ([4]; FXIa),IC50 [3],HS (Hill slope) [7],ΔY (%) [7],IC50 [7],Structure (SMILES),other results
1.7 ± 0.4,105 ± 8%,,,,,,"COC(=O)c1nc(N)n(C(=O)c2ccc(C(C)(C)C)cc2)n1 [RA, reference compound]","IC50 [1]: 235 nM; EC50 [2]: 340000 nM; IC50 [3, 10]: 110 ± 10 nM"
,,25900 ± 4400 nM,1700 nM,,,,COC(=O)c1nc(N)n(C(=O)c2ccccc2Cl)n1 [compound 7],IC50 [5]: > 200000 nM
1.1 ± 0.1,92 ± 3%,> 50000 nM,,1.1 ± 0.2,89 ± 5%,54 ± 8 nM,COC(=O)c1nc(N)n(C(=O)c2ccccc2)n1 [compound 9],selectivity index (IC50 enzyme/IC50 FXIIa) [7]: 0.23; IC50 ([3]; human FXIIa): 240 ± 10 nM
0.8 ± 0.1,102 ± 5%,,7800 nM,,,,COC(=O)c1nc(N)n(C(=O)c2ccc(Cl)cc2)n1 [compound 19],fold decrease in FXIIa inhibition potency ([3]; relative to inhibitor 7 (chlorine ortho to para)): ~4.6 fold
0.8 ± 0.1,76 ± 5%,> 50000 nM,80 ± 10 nM,0.9 ± 0.1,113 ± 8%,90 ± 20 nM,COC(=O)c1nc(N)n(C(=O)c2ccccc2Br)n1 [compound 20],selectivity index (IC50 enzyme/IC50 FXIIa) [4]: >625; selectivity index (IC50 enzyme/IC50 FXIIa) [7]: 1.13; subclass of inhibitor based on selectivity studies [3]: dual inhibitors of FXIIa as well as thrombin
0.5 ± 0.02,109 ± 2%,> 50000 nM,900 ± 100 nM,0.5 ± 0.02,112 ± 10%,900 ± 200 nM,COC(=O)c1nc(N)n(C(=O)c2ccc(Br)cc2)n1 [compound 21],selectivity index (IC50 enzyme/IC50 FXIIa) [4]: >55.56; selectivity index (IC50 enzyme/IC50 FXIIa) [7]: 1.00; fold decrease in FXIIa inhibition potency ([3]; relative to inhibitor 20 (bromine ortho to para)): ~11.3 fold; subclass of inhibitor based on selectivity studies [3]: dual inhibitors of FXIIa as well as thrombin
0.8 ± 0.1,74 ± 7%,> 50000 nM,32 ± 8 nM,1.2 ± 0.2,118 ± 7%,300 ± 50 nM,COC(=O)c1nc(N)n(C(=O)c2ccc(F)cc2)n1 [compound 22],"selectivity index (IC50 enzyme/IC50 FXIIa) [4]: >1562.50; selectivity index (IC50 enzyme/IC50 FXIIa) [7]: 9.38; IC50 [3, 10]: 32 ± 8 nM; fold increase in FXIIa inhibition potency ([3]; relative to inhibitor 9): 7.5 fold; fold more potent FXIIa inhibitor ([3]; than inhibitor RA): 3.4 fold; subclass of inhibitor based on selectivity studies [3]: more specific inhibitors of FXIIa; EC50 ([8]; human plasma, read-out: APTT (EC×1.5), effective concentration to double the clotting time): 25000 to 75000 nM"
0.9 ± 0.1,91 ± 9%,,7900 nM,,,,CCOC(=O)c1nc(N)n(C(=O)c2ccccc2)n1 [compound 31],
